PMC11242993, “Evaluation of the Therapeutic Potential of Sulfonyl Urea Derivatives as Soluble Epoxide Hydrolase (sEH) Inhibitors” (Molecules, 2024)
≈ marks a conversion by molar mass, not a printed value.

Legend:
[1] = Aqueous (kinetic, nephelometric) solubility in PBS; type: physicochemical
Procedure: Aliquots of 5 µL of 20.00 mM, 10.00 mM, 5.00 mM, 2.50 mM, 1.25 mM, 0.63 mM, 0.31 mM, 0.16 mM DMSO stock solutions of the control (highly soluble 2′-deoxy-5-fluorouridine and insoluble raloxifen hydrochloride) and the test compounds were loaded in 96-well microplates with clear flat bottoms in duplicates. Then, 250 µL of PBS was dispensed into each well using a Multidrop Combi dispenser to reach the concentrations of 400.0 µM, 200.0 µM, 100.0 µM, 50.0 µM, 25.0 µM, 12.5 µM, 6.25 µM, 3.125 µM for each compound with 2% final DMSO. Then, the resulting solutions were incubated for 15 min at room temperature. The effective range of this assay is approximately 5–200 µM. The solubility of each compound was calculated using the dedicated fitting algorithm. The physical base of nephelometric titration fitting is based on the quick increase in turbidity when a concentration of the tested compound reaches its solubility level. An intersection of the regression line of the high-level turbidity points with the calculated baseline was plotted for each compound. The baseline is a linear regression line plotted for fully soluble control compound DOFU. Each concentration point signal of the test article was compared with the corresponding signal of DOFU. […]

C57BL/6J male mice = experiment: Tail-flick reflex model; type: in vivo; conditions: single intraperitoneal injection at 10 mg/kg
Procedure: A tail-flick reflex test was performed as previously described. The parameters of the tail-flick instrument (7360, Ugo Basile Instruments, Varese, Italy) were set up to keep the baseline at 2.5–4.0 s. Mice were fixed and the part about 1.5–2 cm away from the tail of the mouse was aligned with the infrared emission hole of the instrument. […] Latencies of mice of less than 2 s or more than 5 s were excluded. […] The cut-off time in the tail-flick reflex test was set at 8 s to avoid sensitization and damage to the skin and to achieve the maximum possible effect (MPE%) = (measured value − basic value) × 100/(cut-off − basic value). C57BL/6J male mice obtained from The Jackson Laboratory (Bar Harbor, ME, USA) weighing 28 g were used for the tail-flick test. Animal procedures were conducted following the rules and regulations of the Institutional Animal Care and Use Committee of the National Institute on Alcohol Abuse and Alcoholism (NIAAA) under the protocols of LPS-GK1.

Structure (SMILES): O=C(NC12CC3CC(CC(C3)C1)C2)NS(=O)(=O)c1ccc(OC(F)(F)F)cc1 [Compound 4f]
- solubility at 15 min ([1]; PBS, pH 7.4, aqueous buffer, kinetic from dmso stock, read-out: Aq. Solubility pH = 7.4): 53 µg/mL (≈ 127 µM)
- aqueous solubility (in words) ([1]; pH 7.4): moderate aqueous solubility
- analgesic activity in tail-flick model (C57BL/6J male mice): significant efficacy
